Source: the OligoGym collection
Several values for one entry are separate records, joined by “and”; a condition that tells them apart may be missing. Identical values can stand only once. After the bases stand the sugars from the 5' end (letter, count) and the backbone: PS all phosphorothioate, else s phosphorothioate and o phosphodiester by linkage. Methylation of C is not given here. e = 2'-O-(2-methoxyethyl) (MOE); k = constrained ethyl (cEt); d = 2'-deoxy (DNA)

biological target: MALAT1; conditions: ASO, A431, 0.005 µM

| Sequence | target mRNA inhibition |
| --- | --- |
| GGATTCTAGACAGACC (sugars k3 d10 k3, PS) | 44% |
| TAAGACCATCCCAAAA (sugars k3 d10 k3, PS) | 16% |
| TCACAAAACCCCCGGA (sugars k3 d10 k3, PS) | 16% |
| GATGTATATAGTTCAA (sugars k3 d10 k3, PS) | 7% |
| ACAATCAAGTCAAGCT (sugars k3 d10 k3, PS) | 15% |
| GGCTGGTTATGACTCA (sugars k3 d10 k3, PS) | 40% |
| GCCGCCTCTTAAAGCA (sugars k3 d10 k3, PS) | -11% |
| TTCAAGCATTCCTTCG (sugars k3 d10 k3, PS) | 62% |
| TTTGAAGCATACCTTA (sugars k3 d10 k3, PS) | -1% |
| GGACATTGCCTCTTCA (sugars k3 d10 k3, PS) | 54% |
| TGTCAATAGTACTATA (sugars k3 d10 k3, PS) | 18% |
| TAGTGGTTCCCAATCC (sugars k3 d10 k3, PS) | 14% |
| GAAGAATCCCCCCCAA (sugars k3 d10 k3, PS) | 11% |
| CATTAAGTTGGTAATT (sugars k3 d10 k3, PS) | 12% |
| CTTGGGAAATCTTAGA (sugars k3 d10 k3, PS) | -11% |
| CCCAGTTTGTCAATAG (sugars k3 d10 k3, PS) | 39% |
| CTTGAAACCGATTATG (sugars k3 d10 k3, PS) | 38% |
| AGGCAAATCGCCATGG (sugars k3 d10 k3, PS) | 5% |
| GGAAATCTTAGAAACG (sugars k3 d10 k3, PS) | 36% |
| TAGTTGTATTAATCTC (sugars k3 d10 k3, PS) | 38% |
| TGCACTAAAGATCACT (sugars k3 d10 k3, PS) | 37% |
| TCTAATCACTGTCAAT (sugars k3 d10 k3, PS) | 32% |
| CAAAGACCTCGACACC (sugars k3 d10 k3, PS) | 18% |

| Sequence | target mRNA inhibition |
| --- | --- |
| GCACTTTTAAAGTCTG (sugars k3 d10 k3, PS) | 74% and 91% |
| CCCCCGCCTCAGTTAC (sugars k3 d10 k3, PS) | 28% |
| TCCGTCATGTTTTAGA (sugars k3 d10 k3, PS) | 50% and 48% |
| AAACCGATTATGGATC (sugars k3 d10 k3, PS) | 3% |
| CAATCCACTTGATCCC (sugars k3 d10 k3, PS) | 56% and 44% |
| CCAGGAGTGCCAACCA (sugars k3 d10 k3, PS) | 5% |
| CATTTATTTCGGCTTC (sugars k3 d10 k3, PS) | 66% and 90% |
| AGTTTGTCAATAGTAC (sugars k3 d10 k3, PS) | 42% |
| AGTTACTTGCCAACTT (sugars k3 d10 k3, PS) | 7% |
| CAACTGGAAGCTCCTT (sugars k3 d10 k3, PS) | 23% |
| CACGGCCCGCACGGAA (sugars k3 d10 k3, PS) | -1% |
| ACCGATTATGGATCAT (sugars k3 d10 k3, PS) | 36% |
| TTAGTAACCTATTGAC (sugars k3 d10 k3, PS) | 34% |
| CTCTGCAGTTTCTATA (sugars k3 d10 k3, PS) | 31% |
| TTCCACAGACCTCAAC (sugars k3 d10 k3, PS) | -4% |
| TACAACACCCGGAAAT (sugars k3 d10 k3, PS) | 16% |
| CAGGCTATTACCTGAA (sugars k3 d10 k3, PS) | -14% |
| GCTTTCCCTGTGGCCT (sugars k3 d10 k3, PS) | 10% |
| GAAACCGATTATGGAT (sugars k3 d10 k3, PS) | 34% |
| CTGCCAACTAATTGCC (sugars k3 d10 k3, PS) | -32% |
| TGATAGTTCAGGGCTT (sugars k3 d10 k3, PS) | 9% |
| TCTATTGCCATGTGCC (sugars k3 d10 k3, PS) | 41% |
| TCTGAAGAATACCATC (sugars k3 d10 k3, PS) | 15% |

| Sequence | target mRNA inhibition |
| --- | --- |
| GCTCTATACTTTGAAG (sugars k3 d10 k3, PS) | 51% |
| GCTGAGTGTTCCTGCA (sugars k3 d10 k3, PS) | 22% |
| CTCCAATACTTGTCTT (sugars k3 d10 k3, PS) | 54% and 44% |
| CTGGAAGCTCCTTCTA (sugars k3 d10 k3, PS) | 25% |
| TTTACCAACCACTCGC (sugars k3 d10 k3, PS) | 18% |
| TAAATTGGTTACCAAT (sugars k3 d10 k3, PS) | 25% |
| CACTCTGATCTGCGGC (sugars k3 d10 k3, PS) | -28% |
| CTGCAAGGTCTCATAC (sugars k3 d10 k3, PS) | 24% |
| GTGGCAAAATGGCGGA (sugars k3 d10 k3, PS) | 21% |
| TGATCATAATCTCCCA (sugars k3 d10 k3, PS) | 43% |
| AGCACATCATGCTATT (sugars k3 d10 k3, PS) | 26% |
| AGGCAAACGAAACATTGGCA (sugars e5 d10 e5, PS) | 3% and 12% |
| GAGATTTGGGCTTTAT (sugars k3 d10 k3, PS) | 34% and 33% |
| CTCTTGAGGGACAGTA (sugars k3 d10 k3, PS) | 4% |
| CTCCAATGGACATCTC (sugars k3 d10 k3, PS) | 29% |
| GGTTACCAATAATTTC (sugars k3 d10 k3, PS) | 93% |
| TTTCATCCTACCACTC (sugars k3 d10 k3, PS) | 27% |
| ATTCCCCAATGGAGGT (sugars k3 d10 k3, PS) | 36% |
| TTTAAATGACGCAATT (sugars k3 d10 k3, PS) | 15% |
| TCTGTGCTAGATCAAA (sugars k3 d10 k3, PS) | 61% |
| CCCCCCGCCTCAGTTA (sugars k3 d10 k3, PS) | -7% |
| AGTGTTTACACTGCTC (sugars k3 d10 k3, PS) | 22% |
| TCAGGCGAGCTGAGGC (sugars k3 d10 k3, PS) | 7% |

| Sequence | target mRNA inhibition |
| --- | --- |
| GCATCTAGGCCATCAT (sugars k3 d10 k3, PS) | 57% |
| CCACTCTAAGATTGTA (sugars k3 d10 k3, PS) | 40% |
| CAACAGCACAGCGGTA (sugars k3 d10 k3, PS) | -5% |
| TCAATGCCTACCGCAC (sugars k3 d10 k3, PS) | 3% |
| ATTAGTAGTCAAAGCA (sugars k3 d10 k3, PS) | 20% |
| TGGGAATACTCTTCCA (sugars k3 d10 k3, PS) | 11% |
| AGTGTACTATCCCATC (sugars k3 d10 k3, PS) | 78% and 91% |
| AATACTTGTCTTAGCT (sugars k3 d10 k3, PS) | 41% |
| GTAGGTATAGTTTACC (sugars k3 d10 k3, PS) | 39% |
| ATCCTCTACGCACAAC (sugars k3 d10 k3, PS) | 42% |
| ACTCTAAGATTGTAAG (sugars k3 d10 k3, PS) | 25% |
| AATCAAGTCAAGCTCC (sugars k3 d10 k3, PS) | 14% |
| TAAACTCACTGCAAGG (sugars k3 d10 k3, PS) | 14% |
| AATATCTTAGTAACCT (sugars k3 d10 k3, PS) | 19% |
| ATAGTTTACCACCTTT (sugars k3 d10 k3, PS) | 39% |
| CCAATATTTGCCCCTC (sugars k3 d10 k3, PS) | 40% |
| TCTACCGTTTTTCAGC (sugars k3 d10 k3, PS) | 26% |
| TCGCCATGGAAAGCGA (sugars k3 d10 k3, PS) | 15% |
| CACAGCTCGGGCGAGG (sugars k3 d10 k3, PS) | 25% |
| CTGAACTATCACAATT (sugars k3 d10 k3, PS) | 28% |
| GATTTGAACCCCGTCC (sugars k3 d10 k3, PS) | -2% |
| GACCTGAAGTCAAGAC (sugars k3 d10 k3, PS) | -1% |
| TCATACACTCACTAGA (sugars k3 d10 k3, PS) | -22% |

| Sequence | target mRNA inhibition |
| --- | --- |
| GGGAAAAGTGGTTGCC (sugars k3 d10 k3, PS) | 9% |
| CAAGACCAAACTGCAG (sugars k3 d10 k3, PS) | -28% |
| AGCTCCTGACAAATTA (sugars k3 d10 k3, PS) | 15% |
| TGTACTATCCCATCAC (sugars k3 d10 k3, PS) | 51% and 71% |
| TTACACATCCAAACTC (sugars k3 d10 k3, PS) | 1% |
| CTGCGACTTGCTCCCA (sugars k3 d10 k3, PS) | 10% |
| AGCCAAGCCGCCTGCT (sugars k3 d10 k3, PS) | 20% |
| GCTACTGGCTGCATCG (sugars k3 d10 k3, PS) | 43% |
| TCCAAGCTACTGGCTG (sugars k3 d10 k3, PS) | 20% |
| TCCTCAAGCTCCGCCT (sugars k3 d10 k3, PS) | 23% |
| AACCGATTATGGATCA (sugars k3 d10 k3, PS) | 49% |
| TTAGTAGCTTTTTGAT (sugars k3 d10 k3, PS) | 39% |
| CCAGGCTGGTTATGAC (sugars k3 d10 k3, PS) | 44% |
| GGATCCAAGCTACTGG (sugars k3 d10 k3, PS) | 18% |
| TATTCCCCAATGGAGG (sugars k3 d10 k3, PS) | 17% |
| GTCTGAGGCAAACGAA (sugars k3 d10 k3, PS) | 29% |
| GTGAGAACTGCTCTAG (sugars k3 d10 k3, PS) | 36% |
| ACGAAACTCCCCCATT (sugars k3 d10 k3, PS) | 36% |
| AAGCGAATGGCTTTGT (sugars k3 d10 k3, PS) | 6% |
| CTGCGGTTTCCTCAAG (sugars k3 d10 k3, PS) | 29% |
| TTTTAAACGGGTCATC (sugars k3 d10 k3, PS) | 17% |
| CTCTATACTTTGAAGG (sugars k3 d10 k3, PS) | 20% |
